Experimental data taken from patent publication US12016870B2, “Agents for use in the treatment of cardiac arrhythmia” (priority 2018, dated 2024).

Experiments:
[1] = tested on: tissue engineered strands of rat ventricular cardiomyocytes; assay: Conduction velocity along linear tissue engineered cardiomyocyte strands, optical recording with di-8-ANEPPS; assay type: cell-based; conditions: for Conduction velocity (CV) along strands of cardiomyocytes: mean+/-SD
Experimental: The effects of Gb3 on impulse propagation characteristics were investigated in tissue engineered strands of rat ventricular cardiomyocytes where impulse propagation was recorded using the voltage sensitive dye di-8-ANEPPS as described below.
(§1) Impulse propagation along the patterned preparations was followed optically using a fast voltage-sensitive dye (Rohr et al., 1994, Biophys J., 67(3):1301-1315). In short, the preparations were stained for 3 to 4 minutes with 1 mL of the superfusion solution containing […] of the voltage-sensitive dye di-8-ANEPPS (Molecular Probes). The dye was excited by a short-arc xenon lamp driven by a low-ripple power supply (Optiquip). The light was, after passing a shutter (VS25S21 MO, Vincent Assoc), short-pass filtered (570 EFSP, Omega) and deflected toward the objective by means of a dichroic mirror (575 nm; Omega). Emitted fluorescence from the preparation was long-pass filtered (590 nm, Omega) and projected onto a 2-dimensional array of 379 optical fibers, which formed a hexagonal array (Rohr et al., 1998, Biophys J., 75(2):1062-1075). From the entire array, ≤80 fibers were selected according to the shape of a given preparation and were connected to individual photodiodes. The resulting photocurrents were converted to voltages and amplified (typical overall gain of 2.5×10^9 V/A f0=1.6 kHz). The conditioned signals were simultaneously sampled at 20 kHz/channel by a computer-based data acquisition system. Experiments were performed with a 20×, 0.75 numerical aperture (NA) objective (each detector monitored a circular area with a diameter of 50 um corresponding to 4 to 10 cells contributing to the signal) permitting assessment of activation along the preparations for distances up to 1 mm.
After mounting the preparations in the experimental chamber, control superfusion was started (Hanks' balanced salt solution (HBSS), containing (mmol/L) NaCl 137, KCl 5.4, CaCl2 1.3, MgSO4 0.8, NaHCO3 4.2, KH2PO4 0.5, NaH2PO4 0.3, and HEPES 10, which was titrated to pH 7.40 with NaOH). The preparations were stimulated with bipolar electrodes consisting of glass micropipettes (filling, HBSS with 1% agar) and a silver wire coiled around the shank of the electrode. The electrodes were attached to micromanipulators (DC-3K, Marzhauser) and placed at a sufficient distance from the measurement site (1 mm) to (1) avoid electronically mediated stimulation artifacts to distort the signal of interest and (2) permit propagation to reach steady-state conditions at the site of the measurement. Rectangular impulses (duration, 1 ms; 2-3 times threshold intensity) were delivered to the preparations at a basic cycle length of 500 ms by a stimulator (SD9, Grass Instruments) for at least 10 seconds before a given optical recording. All experiments were performed at a temperature of 36+/−0.4° C.
The raw data were analyzed by programming routines written in Interactive Data Language (IDL; Creaso). The data processing typically involved manual selection of the upstroke portions of the action potentials to omit any signal distortion due to motion artifacts occurring several milliseconds after the upstrokes. The data were digitally low-pass filtered and signal amplitudes obtained under control conditions were set to 100%.
While control preparations conducted action potentials (APs) at a speed of 321.8±20.9 mm/sec (N=15), CVs in strands incubated with 10 nM Gb3 were increased by over 20% to 390.2±21.3 mm/sec (N=6, p<0.0001 versus control).

[2] = tested on: multi-junction preparations (branched tissue architecture) of rat cardiomyocytes; assay: Conduction velocity in branched (multi-junction) cardiomyocyte preparations, model of discontinuous conduction; assay type: cell-based; conditions: 10 nmol/L Gb3 for 24 hrs
Experimental: as §1, with “The resulting photocurrents were converted to voltages and amplified (typical overall gain of 2.5×10^9 V/A f0=1.6 kHz). The conditioned signals were simultaneously sampled at 20 kHz/channel by a computer-based data acquisition system.” left out, “mm. […]” for “mm.”
The raw data were analyzed by programming routines written in Interactive Data Language (IDL; Creaso). […]

Question: How did the “Increase of CV versus control” value ([1]; 10 nM Gb3, 24 hours exposure) turn out when globotriaosylceramide [Gb3] was run?
Answer: The value was “over 20%”.

Question: What about the “Conduction velocity (CV) along strands of cardiomyocytes” value (“Conduction velocity (CV) along strands” below) ([1]; 10 nM Gb3, 24 hours exposure, N=6, p<0.0001 versus control (control 321.8±20.9 mm/sec)) of the same substance?
Answer: The value was 390.2±21.3 mm/sec.

Question: And the “Conduction velocity (CV) along strands” value ([1]; 100 nM Gb3, 24 hours exposure, p<0.005 vs control)?
Answer: Its value is 358.8±20.3 mm/sec.

Question: What about the “Conduction velocity (CV) along strands” value ([1]; 1 μM Gb3, 24 hours exposure, p=0.3 vs control) of the same substance?
Answer: The value was 338.4±27.3 mm/sec.

Question: And the Cytotoxic effects ([1]; all Gb3 concentrations used, 24 hours exposure)?
Answer: The Cytotoxic effects was “None of the concentrations of Gb3 used were associated with cytotoxic effects”.

Question: And the “Increase in CV in branched preparations treated with Gb3” value ([2]; versus control branched preparations)?
Answer: The value was about 67%.

Question: What about the “CV in multi-junction preparations as % of linear strands” value ([2]; N=25, normalized to linear strands grown in parallel (control multi-junction 57.4±6.7%)) of the same substance?
Answer: Its value is 84.7±2.3%.
